Here are results for 27 compounds from patent US20220363665A1, “QUINOLINE COMPOUNDS FOR THE TREATMENT OF AUTOIMMUNE DISEASE” (Hoffmann-La Roche Inc., priority 2019, published 2022).

Structures are written as SMILES. Where only a bound is given, the exact number is not on record here.

The experiment deals with T1, human TLR9 (Homo sapiens, UniProt Q9NR96).
T1 construct: host or cells: HEK293 (HEK-Blue hTLR9)
T1 sequence (Q9NR96 26-1032): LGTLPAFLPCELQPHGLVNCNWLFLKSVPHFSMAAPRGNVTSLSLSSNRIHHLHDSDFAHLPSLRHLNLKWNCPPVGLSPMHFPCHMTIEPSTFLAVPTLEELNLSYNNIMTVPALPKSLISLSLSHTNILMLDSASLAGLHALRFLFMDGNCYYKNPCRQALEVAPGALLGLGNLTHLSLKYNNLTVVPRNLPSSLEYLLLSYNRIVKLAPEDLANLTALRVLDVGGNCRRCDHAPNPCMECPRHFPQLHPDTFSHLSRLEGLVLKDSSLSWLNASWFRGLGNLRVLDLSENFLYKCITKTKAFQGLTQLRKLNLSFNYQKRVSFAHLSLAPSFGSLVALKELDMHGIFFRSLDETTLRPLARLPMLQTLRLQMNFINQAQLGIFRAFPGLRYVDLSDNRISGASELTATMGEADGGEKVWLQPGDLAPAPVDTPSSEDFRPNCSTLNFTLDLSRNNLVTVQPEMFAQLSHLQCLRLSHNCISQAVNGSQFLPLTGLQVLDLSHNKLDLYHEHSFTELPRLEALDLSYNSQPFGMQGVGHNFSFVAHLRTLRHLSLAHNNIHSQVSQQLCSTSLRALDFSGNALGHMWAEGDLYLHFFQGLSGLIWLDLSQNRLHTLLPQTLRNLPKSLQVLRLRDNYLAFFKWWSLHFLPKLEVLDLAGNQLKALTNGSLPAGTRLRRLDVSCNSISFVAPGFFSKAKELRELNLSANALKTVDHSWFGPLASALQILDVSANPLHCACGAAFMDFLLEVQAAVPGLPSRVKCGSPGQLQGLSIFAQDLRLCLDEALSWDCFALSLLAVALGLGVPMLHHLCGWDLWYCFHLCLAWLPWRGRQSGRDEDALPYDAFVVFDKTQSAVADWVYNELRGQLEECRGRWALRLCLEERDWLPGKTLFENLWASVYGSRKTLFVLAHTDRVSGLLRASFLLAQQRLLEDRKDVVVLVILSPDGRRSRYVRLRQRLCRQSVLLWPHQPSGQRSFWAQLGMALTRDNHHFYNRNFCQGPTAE
As to the kind of experiment: HEK293-Blue-hTLR-9 cells assay (SEAP reporter, ODN2006 stimulation). Type of experiment: cell-based. The following applies: HEK293-Blue-hTLR9 cells, ODN2006, 20 hrs. The method, then:
The following tests were carried out in order to determine the activity of the compounds of formula (I) in HEK293-Blue-hTLR-7/8/9 cells assay.
HEK293-Blue-hTLR-9 Cells Assay:
A stable HEK293-Blue-hTLR-9 cell line was purchased from InvivoGen (Cat. #. hkb-htlr9, San Diego, Calif., USA). These cells were originally designed for studying the stimulation of human TLR9 by monitoring the activation of NF-κB. A SEAP (secreted embryonic alkaline phosphatase) reporter gene was placed under the control of the […] minimal promoter fused to five NF-κB and AP-1-binding sites. The SEAP was induced by activating NF-κB and AP-1 via stimulating HEK-Blue hTLR9 cells with TLR9 ligands. Therefore the reporter expression was declined by TLR9 antagonist under the stimulation of a ligand, such as ODN2006 (Cat. #: tlrl-2006-1, Invivogen, San Diego, Calif., USA), for incubation of 20 hrs. The cell culture supernatant SEAP reporter activity was determined using QUANTI-Blue™ kit (Cat. #: rep-qbl, Invivogen, San Diego, Calif., USA) at a wavelength of 640 nm, a detection medium that turns purple or blue in the presence of alkaline phosphatase.
HEK293-Blue-hTLR9 cells were incubated at a density of […] cells/mL in a volume of 170 μL, in a 96-well plate in Dulbecco's Modified Eagle's medium (DMEM) containing 4.5 g/L glucose, 50 U/mL penicillin, […], […], 2 mM L-glutamine, 10% (v/v) heat-inactivated fetal bovine serum with addition of 20 μL test compound in a serial dilution in the presence of final DMSO at 1% and 10 μL of 20 uM ODN2006 in above DMEM, perform incubation under 37° C. in a CO2 incubator for 20 hrs. Then 20 μL of the supernatant from each well was incubated with 180 μL Quanti-blue substrate solution at 37° C. for 2 hrs and the absorbance was read at 620˜655 nm using a spectrophotometer. The signalling pathway that TLR9 activation leads to downstream NF-κB activation has been widely accepted, and therefore similar reporter assay was modified for evaluating TLR9 antagonist.
In the case of `C[C@@H]1CN(c2ccc(C(F)(F)F)c3ncccc23)C[C@H](C(=O)N2CCC(N)CC2)O1` [Example 12, (4-amino-1-piperidyl)-[(2R,6R)-6-methyl-4-[8-(trifluoromethyl)-5-quinolyl]morpholin-2-yl]methanone], the IC50 was determined as 6.3 µM.
Compound `CC(NC(=O)[C@H]1CN(c2ccc(C(F)(F)F)c3ncccc23)C[C@@H](C)O1)C1CN(C)CCO1` (single isomer, unassigned) [Example 35B] displayed an IC50 of 50.2 µM.
In the case of `C[C@@H]1CN(c2ccc(C(F)(F)F)c3ncccc23)C[C@H](C(=O)NC2CC3CNCC32)O1` (single isomer, unassigned) [Example 49B] it was 7.3 µM.
For `CC(NC(=O)[C@H]1CN(c2ccc(C(F)(F)F)c3ncccc23)C[C@@H](C)O1)C1CN(C)CCO1` (single isomer, unassigned) [Example 35A] the value was 42.7 µM; for `C[C@H]1C[C@@H](N)CN(c2ccc(C(F)(F)F)c3ncccc23)C1` [Example 1, (3R,5S)-5-methyl-1-[8-(trifluoromethyl)-5-quinolyl]piperidin-3-amine], 9.7 µM; for `C[C@@H]1CN(c2ccc([N+](=O)[O-])c3ncccc23)C[C@H](C(=O)N[C@@H]2CNC[C@@H]2F)O1` [Example 19, cis-(2R,6R)-N-[41-fluoropyrrolidin-3-yl]-6-methyl-4-(8-nitro-5-quinolyl)morpholine-2-carboxamide], 50.7 µM.
Compound `C[C@@H]1CN(c2ccc(C(F)(F)F)c3ncccc23)C[C@H](C(=O)NC2CCCNCC2)O1` (stereo partly drawn) [Example 8, (2R,6R)-N-(azepan-4-yl)-6-methyl-4-[8-(trifluoromethyl)-5-quinolyl]morpholine-2-carboxamide] displayed an IC50 of 10.3 µM.
As for `C[C@@H]1CN(c2ccc([N+](=O)[O-])c3ncccc23)C[C@H](C(=O)NC2CCN(C)CC2)O1` [Example 20, (2R,6R)-6-methyl-N-(1-methyl-4-piperidyl)-4-(8-nitro-5-quinolyl)morpholine-2-carboxamide], the midpoint of inhibition, the IC50, lay at 14.9 µM.
As to `C[C@@H]1CN(c2ccc(C(F)(F)F)c3ncccc23)C[C@H](C(=O)NC2CC3CCC(C2)N3)O1` (single isomer, unassigned) [Example 47A], the IC50 came out at 10.1 µM.
For `C[C@@H]1CN(c2ccc(I)c3ncccc23)C[C@H](C(=O)NCC2CN(C)CCO2)O1` (stereo partly drawn) [Example 39, (2R,6R)-4-(8-iodo-5-quinolyl)-6-methyl-N-[(4-methylmorpholin-2-yl)methyl]morpholine-2-carboxamide] the value was 35.8 µM.
Take `C[C@@H]1CN(c2ccc(C(F)(F)F)c3ncccc23)C[C@H](C(=O)NC2CC3CNCC(C3)C2)O1` (stereo partly drawn) [Example 37, (2R,6R)-N-(3-azabicyclo[3.3.1]nonan-7-yl)-6-methyl-4-[8-(trifluoromethyl)-5-quinolyl]morpholine-2-carboxamide]: the IC50 came to 7.8 µM.
With `C[C@@H]1CN(c2ccc(C(F)(F)F)c3ncccc23)C[C@H](C(=O)NCC2CNCC2(F)F)O1` (stereo partly drawn) [Example 29, (2R,6R)-N-[(4,4-difluoropyrrolidin-3-yl)methyl]-6-methyl-4-[8-(trifluoromethyl)-5-quinolyl]morpholine-2-carboxamide], the IC50 was above 100 µM.
For `C[C@@H]1CN(c2ccc(C(F)(F)F)c3ncccc23)C[C@H](C(=O)NCCN2CCOCC2)O1` [Example 13, (2R,6R)-6-methyl-N-(2-morpholinoethyl)-4-[8-(trifluoromethyl)-5-quinolyl]morpholine-2-carboxamide], the IC50 was above 100 µM.
As for `Cc1ccc(N2C[C@@H](C)O[C@@H](C(=O)NC3CCN(C)CC3)C2)c2cccnc12` [Example 16, (2R,6R)-6-methyl-N-(1-methyl-4-piperidyl)-4-(8-methyl-5-quinolyl)morpholine-2-carboxamide], 39.9 µM corresponded to half-maximal inhibition (IC50).
In the case of `C[C@@H]1CN(c2ccc(C(F)(F)F)c3ncccc23)C[C@H](C(=O)N2CCC(N)C2)O1` (stereo partly drawn) [Example 10, (3-aminopyrrolidin-1-yl)-[(2R,6R)-6-methyl-4-[8-(trifluoromethyl)-5-quinolyl]morpholin-2-yl]methanone] it was 18.4 µM; in that of `C[C@@H]1CN(c2ccc(C(F)(F)F)c3ncccc23)C[C@H](C(=O)NC2C3CCC2CNC3)O1` (stereo partly drawn) [Example 31, (2R,6R)-N-(3-azabicyclo[3.2.1]octan-8-yl)-6-methyl-4-[8-(trifluoromethyl)-5-quinolyl]morpholine-2-carboxamide], 9.2 µM; in that of `C[C@@H]1CN(c2ccc(C(F)(F)F)c3ncccc23)C[C@H](C(=O)NC2CC3CCC(C2)N3)O1` (single isomer, unassigned) [Example 47B], 10.5 µM.
As for `C[C@H]1C[C@@H](N)CN(c2ccc(Cl)c3ncccc23)C1` [Example 23, (3R,5S)-1-(8-chloro-5-quinolyl)-5-methyl-piperidin-3-amine], it took 7 µM to reach half-maximal inhibition (IC50).
The compound `C[C@@H]1CN(c2ccc(Cl)c3ncccc23)C[C@H](C(=O)NCC2CN(C)CCO2)O1` (stereo partly drawn) [Example 26, (2R,6R)-4-(8-chloro-5-quinolyl)-6-methyl-N-[(4-methylmorpholin-2-yl)methyl]morpholine-2-carboxamide] yielded an IC50 of 46 µM.
The compound `C[C@@H]1CN(c2ccc(C(F)(F)F)c3ncccc23)C[C@H](C(=O)NC2CC3CCCC(C2)N3)O1` (single isomer, unassigned) [Example 34A] yielded an IC50 of 8.5 µM.
`C[C@@H]1CN(c2ccc(Cl)c3ncccc23)C[C@H](C(=O)NC2CCN(C)CC2)O1` [Example 24, (2R,6R)-4-(8-chloro-5-quinolyI)-6-methyl-N-(1-methyl-4-piperidyl)morpholine-2-carboxamide] yielded an IC50 of 23.7 µM.
Regarding `C[C@@H]1CN(c2ccc(C(F)(F)F)c3ncccc23)C[C@H](C(=O)NCC2CN(C)CCO2)O1` (stereo partly drawn) [Example 3, (2R,6R)-6-methyl-N-[(4-methylmorpholin-2-yl)methyl]-4-[8-(trifluoromethyl)-5-quinolyl]morpholine-2-carboxamide], inhibition was half-maximal at 81.9 µM (IC50).
`C[C@@H]1CN(c2ccc([N+](=O)[O-])c3ncccc23)C[C@H](C(=O)NCC2CN(C)CCO2)O1` (stereo partly drawn) [Example 18, (2R,6R)-6-methyl-N-[(4-methylmorpholin-2-yl)methyl]-4-(8-nitro-5-quinolyl)morpholine-2-carboxamide] showed an IC50 of 54.8 µM.
For the compound `C[C@@H]1CN(c2ccc(C(F)(F)F)c3ncccc23)C[C@H](C(=O)NC2CC3CNCC32)O1` (single isomer, unassigned) [Example 49A], inhibition was half-maximal at 10.7 µM (IC50).
In turn, `C[C@@H]1CN(c2ccc(Cl)c3ncccc23)C[C@H](C(=O)NC2CCCNCC2)O1` (stereo partly drawn) [Example 25, (2R,6R)-N-(azepan-4-yl)-4-(8-chloro-5-quinolyl)-6-methyl-morpholine-2-carboxamide] displayed a 50% inhibitory concentration (IC50) of 12.4 µM.
In turn, `Cc1ccc(N2C[C@@H](C)C[C@@H](N)C2)c2cccnc12` [Example 15, (3R,5S)-5-methyl-1-(8-methyl-5-quinolyl)piperidin-3-amine] registered an IC50 of 14 µM.
In the case of `C[C@@H]1CN(c2ccc(C(F)(F)F)c3ncccc23)C[C@H](C(=O)N2CC(N)C2)O1` [Example 7, (3-aminoazetidin-1-yl)-[(2R,6R)-6-methyl-4-[8-(trifluoromethyl)-5-quinolyl]morpholin-2-yl]methanone] it was 68.5 µM.
